Source: US20150038545A1, “HYDROXYPHENYL PYRROLE COMPOUNDS CONTAINING AN HYDROXAMIC ACID AS HDAC INHIBITORS AND MEDICINAL APPLICATIONS THEREOF” (UNIVERSIDAD DEL PAÍS VASCO, priority 2011, published 2015)

Experiments:
Human HDAC9 = target: T1, Human HDAC9 (Homo sapiens, UniProt Q9UKV0); assay: In vitro HDAC9 inhibition, fluorogenic peptide assay; format: biochemical; conditions: for IC50: read-out: IC50 (nM) of enzyme activity HDAC9
T1 construct: Amino acids 604-1066 with C-terminal His tag, MW=50.7 kDa; His (C); purchased BioMol, Hamburg, Germany
Description: All HDAC assays were performed using acetylated AMC-labeled peptide substrate: • Substrate for isoforms HDAC1, 2, 3, 4, 5, 6, 7, 9, 10, 11 and HeLa nuclear extract assays: Acetylated fluorogenic peptide from p53 residues 379-382 (RHKKAc) (BioMol. Cat. # KI-104). • Substrate for HDAC8 assays: Acetylated fluorogenic peptide from p53 residues 379-382 (RHKAcKAc) (BioMol. Cat. # KI-178).
Enzymes: • HDAC1 assay: 75 nM Human HDAC1 (GenBank Accession No. NM_004964): Full length with C-terminal GST tag, MW=79.9 kDa, expressed by baculovirus expression system in Sf9 cells (BioMol. Cat. # SE-456). • HDAC2 assay: 5 nM Human HDAC2 (GenBank Accession No. Q92769): Full length with C-terminal His tag, MW=60 kDa, expressed by baculovirus expression system in Sf9 cells (BioMol. Cat. # SE-500). • HDAC3 assay: 2.3 nM Human HDAC3/NcoR2 (GenBank Accession No. NM_003883 for HDAC3, GenBank Accession No.NM_006312 for NcoR2): Complex of human HDAC3, full length with C-terminal His tag, MW=49.7 kDa, and human NCOR2, N-terminal GST tag, MW=39 kDa, co-expressed in baculovirus expression system (BioMol. Cat. # SE-507). • HDAC4 assay: 266 nM Human HDAC4 (GenBank Accession No. NM_006037): Amino acids 627-1085 with N-terminal GST tag, MW=75.2 kDa, expressed in baculovirus expression system (BioMol, Hamburg, Germany). • HDAC5 assay: 588 nM Human HDAC5 (GenBank Accession No. NM_001015053): Full length with Nterminal GST tag, MW=150 kDa, expressed by baculovirus expression system in Sf9 cells (BioMol, Hamburg, Germany). • HDAC6 assay: 13 nM Human HDAC6 (GenBank Accession No. BC069243): Full length with N-terminal GST tag, MW=159 kDa, expressed by baculovirus expression system in Sf9 cells (BioMol. Cat. # SE-508). • HDAC7 assay: 962 nM Human HDAC7 (GenBank Accession No. AY302468): Amino acids 518-end with N-terminal GST tag, MW=78 kDa, expressed in baculovirus expression system (BioMol, Hamburg, Germany). • HDAC8 assay: 119 nM Human HDAC8 (GenBank Accession No. NM018486): Full length, MW=42 kDa, expressed in an E. coli expression system (BioMol. […]
The reactions were carried out in a 96-well microplate for fluorometry in a 50 μl reaction volume. […] The reaction was allowed to develop for 45 minutes at 30° C. with 5% CO2; then the fluorescent signal was measured with an excitation wavelength at 360 nm and an emission wavelength at 460 nm in a microplate-reading fluorometer (GeminiXS; Molecular Devices, Sunnyvale, Calif.). […] IC50 was calculated by fitting the experimental data to a dose-response curve. […]

DU145 = assay: Cancer cell growth inhibition (CellTiter-Glo), DU145; format: cell-based, Human; conditions: Homo sapiens, DU-145; Prostate Cancer, DU145, 72 h treatment
Description: (§1) Cell culture-based assays were used to evaluate the ability of compounds of the invention to inhibit cancer cell growth.
(§2) Cells were obtained from the American Type Culture Collection (ATCC). Cells were cultured at 37° C. with 5% CO2 in the appropriate growth medium (see table below), and harvested respectively during the logarithmic growth period and counted with hemocytometer. The cell viability was examined by trypan blue exclusion. Cell concentrations were adjusted to 5.56×10^4 cells/ml with respective medium.
(§3) Stock solutions of test compounds and positive drugs Doxorubicin (Zhejiang, Haizheng, China), Cisplatin (Nanjing Zhiyao, China) and Mitomycin (Zhejiang, Haizheng, China) were prepared in dimethyl sulphoxide (DMSO) or PBS at 20 mM.
(§4) In order to determine the IC50 for each compound, experiments were carried out in 96-well plates and the cell lines seeded at a density of 5,000 cells/well. […] All treatments were performed in triplicate. 10 μl of drug solution was added to each well and incubated for 72 hours. At the end of the incubation, 100 μl of the CellTiter-Glo Reagent were added to each well and the contents were mixed for 2 munites on an orbital shaker to induce cell lysis. The plate was incubated at room temperature for 10 minutes to stabilize luminiscent signal, and luminiscent was recorded. […] In order to calculate IC50 values, dose-responsive curves were fitted using nonlinear regression model with a sigmoidal dose response.

PC-3 = assay: Cancer cell growth inhibition (CellTiter-Glo), PC-3; format: cell-based, Human; conditions: Homo sapiens; Prostate Cancer, PC-3, 72 h treatment
Description: as §1, §2, §3, §4

786-O = assay: Cancer cell growth inhibition (CellTiter-Glo), 786-O; format: cell-based, Human; conditions: Homo sapiens, 786-0, Kidney Cancer, 72 h treatment
Description: as §1, §2, §3, §4

Hep3B = assay: Cancer cell growth inhibition (CellTiter-Glo), Hep3B; format: cell-based, Human; conditions: Homo sapiens, Liver Cancer, 72 h treatment
Description: as §1, §2, §3, §4

CNE2 = assay: Cancer cell growth inhibition (CellTiter-Glo), CNE2; format: cell-based, Human; conditions: Homo sapiens, CNE-2; Nasopharyngeal, CNE2, 72 h treatment
Description: as §1, §2, §3, §4

T1 sequence (Q9UKV0 604-1066 isoform Q9UKV0-7): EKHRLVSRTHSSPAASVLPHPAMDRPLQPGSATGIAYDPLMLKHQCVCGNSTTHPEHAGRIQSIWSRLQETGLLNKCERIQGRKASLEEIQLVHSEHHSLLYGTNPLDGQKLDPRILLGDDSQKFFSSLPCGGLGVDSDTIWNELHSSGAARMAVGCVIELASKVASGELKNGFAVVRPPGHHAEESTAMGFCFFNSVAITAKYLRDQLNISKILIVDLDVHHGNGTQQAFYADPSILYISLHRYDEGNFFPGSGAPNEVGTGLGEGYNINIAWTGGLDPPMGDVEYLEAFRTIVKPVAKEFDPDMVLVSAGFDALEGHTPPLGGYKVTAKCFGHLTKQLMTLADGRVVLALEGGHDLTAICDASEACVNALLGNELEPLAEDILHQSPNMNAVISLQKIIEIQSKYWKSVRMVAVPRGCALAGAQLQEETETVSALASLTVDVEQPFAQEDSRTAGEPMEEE

| Selectivity against HDAC6 (IC50 HDACx/IC50 HDAC6) HDAC9 (Human HDAC9; IC50 HDAC9/IC50 HDAC6) | IC50 (Human HDAC9) [nM] | IC50 (DU145) [µM] | IC50 (PC-3) [µM] | IC50 (786-O) [µM] | IC50 (Hep3B) [µM] | IC50 (CNE2) [µM] | SMILES |
| --- | --- | --- | --- | --- | --- | --- | --- |
| 38.4 | 768 | – | – | – | – | – | COc1ccc(-c2cc(-c3ccccc3)[nH]c2C(=O)NCCCCCC(=O)NO)cc1 [Compound A, N-[6-(hydroxyamino)-6-oxohexyl]-3-(4-methoxyphenyl)-5-phenyl-1H-pyrrole-2-carboxamide, reference compound] |
| – | – | 0.81 | 17.9 | 3.28 | 1.61 | 2.77 | O=C(CCCCCNC(=O)c1[nH]c(-c2ccccc2)cc1-c1ccc(O)cc1)NO [Example 1, N-(6-(hydroxyamino)-6-oxohexyl)-3-(4-hydroxyphenyl)-5-phenyl-1H-pyrrole-2-carboxamide] |
| – | – | 1.86 | 26.9 | 3.51 | 1.6 | 10.1 | O=C(CCCCCNC(=O)c1[nH]c(-c2ccc(O)cc2)cc1-c1ccccc1)NO [Example 2, N-(6-(hydroxyamino)-6-oxohexyl)-5-(4-hydroxyphenyl)-3-phenyl-1H-pyrrole-2-carboxamide] |
| – | 27 | 0.72 | 25.8 | 3.14 | 1.01 | 10.1 | O=C(CCCCCNC(=O)c1[nH]c(-c2ccc(O)cc2)cc1-c1ccoc1)NO [Example 5, 3-(3-furyl)-N-(5-(hydroxycarbamoyl)pentyl)-5-(4-hydroxy-phenyl)-1H-pyrrole-2-carboxamide] |
| – | 80 | 1.05 | 26.8 | 2.7 | 0.89 | 7.39 | O=C(CCCCCNC(=O)c1[nH]c(-c2ccc(O)cc2)cc1-c1ccsc1)NO [Example 6, N-(5-(hydroxycarbamoyl)pentyl)-5-(4-hydroxyphenyl)-3-(3-thienyl)-1H-pyrrole-2-carboxamide] |
